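Following 48 hours of exposure in 96-well plates, responses at five concentrations were used to interpolate endpoints linearly. Here, GI50 denotes the concentration required for 50% inhibition of growth.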 Calls of active or inactive are those of the source. Cut-off read from the data, not from the text of the source: active = GI50 up to about 1.1 µM and inactive = higher.
How the values were obtained:
Experiment in all cases: inhibition of tumour cell growth, NCI panel, 48 h
RXF 393 = tested on: RXF 393
MDA-N = tested on: MDA-N
IGROV-1 = tested on: IGROV-1
SNB-75 = tested on: SNB-75
RPMI-8226 = tested on: RPMI-8226
OVCAR-8 = tested on: OVCAR-8
NCI-H23 = tested on: NCI-H23
COLO 205 = tested on: COLO 205
NCI-H226 = tested on: NCI-H226
OVCAR-4 = tested on: OVCAR-4
EKVX = tested on: EKVX
HOP-62 = tested on: HOP-62
T47D = tested on: T47D
MOLT-4 = tested on: MOLT-4
SN12C = tested on: SN12C
M14 = tested on: M14
SR = tested on: SR
SK-MEL-5 = tested on: SK-MEL-5
MCF7 = tested on: MCF7
Hs-578T = tested on: Hs-578T

SMILES | GI50 (RXF 393) | GI50 (MDA-N) | GI50 (IGROV-1) | GI50 (SNB-75) | GI50 (RPMI-8226) | GI50 (OVCAR-8) | GI50 (NCI-H23) | GI50 (COLO 205) | GI50 (NCI-H226) | GI50 (OVCAR-4) | GI50 (EKVX) | GI50 (HOP-62) | GI50 (T47D) | GI50 (MOLT-4) | GI50 (SN12C) | GI50 (M14) | GI50 (SR) | GI50 (SK-MEL-5) | GI50 (MCF7) | GI50 (Hs-578T)
COC(=O)[C@@H](NC(=O)c1ccc(CNC(=O)/C(C)=C/c2ccccc2)cc1)C(C)C | 79.6 µM (inactive) | 66.5 µM (inactive) | > 100 µM (inactive) | > 100 µM (inactive) | 69.8 µM (inactive) | > 100 µM (inactive) | > 100 µM (inactive) | 67.9 µM (inactive) | > 100 µM (inactive) | 56.8 µM (inactive) | 35.4 µM (inactive) | > 100 µM (inactive) | 56.2 µM (inactive) | 78.2 µM (inactive) | > 100 µM (inactive) | 61.2 µM (inactive) | > 100 µM (inactive) | 68.4 µM (inactive) | 42.2 µM (inactive) | 
O=C1C=CC2(CCCCCCC2=O)CC1 (stereo not drawn) | > 100 µM (inactive) |  | > 100 µM (inactive) | 57.9 µM (inactive) | > 100 µM (inactive) | > 100 µM (inactive) |  | 57 µM (inactive) | 42.6 µM (inactive) | > 100 µM (inactive) | > 100 µM (inactive) | > 100 µM (inactive) |  | > 100 µM (inactive) | > 100 µM (inactive) | > 100 µM (inactive) | > 100 µM (inactive) | > 100 µM (inactive) |  | 
ClC1=NSSC1(Cl)Cl | 46.1 µM (inactive) | 27.7 µM (inactive) | 61 µM (inactive) | 41.7 µM (inactive) | 23.5 µM (inactive) | 24.4 µM (inactive) | > 100 µM (inactive) | 14.7 µM (inactive) | > 100 µM (inactive) | 44.2 µM (inactive) | 58.3 µM (inactive) | > 100 µM (inactive) |  | 14.8 µM (inactive) | 22.1 µM (inactive) | 19.8 µM (inactive) | 21 µM (inactive) | 14.1 µM (inactive) | 32.3 µM (inactive) | 
Cc1csc(NC23CC4CC(CC(C4)C2)C3)[n+]1C(P(=O)([O-])O)P(=O)(O)O (stereo not drawn) | > 100 µM (inactive) | > 100 µM (inactive) | > 100 µM (inactive) | > 100 µM (inactive) | > 100 µM (inactive) | > 100 µM (inactive) | > 100 µM (inactive) | > 100 µM (inactive) | > 100 µM (inactive) |  | > 100 µM (inactive) | > 100 µM (inactive) |  | > 100 µM (inactive) |  | > 100 µM (inactive) | > 100 µM (inactive) | > 100 µM (inactive) | > 100 µM (inactive) | > 100 µM (inactive)
CC[C@]1(Cc2ccc(OC)c(OC)c2)[C@@H]2C[C@@H](C3OCCO3)ON2O[C@H](OC2CCCC2(c2ccccc2)c2ccccc2)[C@@H]1OC(C)=O (stereo partly drawn) |  | 36.1 µM (inactive) | 23.3 µM (inactive) | 24 µM (inactive) |  | 24.9 µM (inactive) | 21 µM (inactive) | 26.9 µM (inactive) | 20.6 µM (inactive) |  | 21.1 µM (inactive) | 19.6 µM (inactive) | 18.7 µM (inactive) | 10.1 µM (inactive) | 31.3 µM (inactive) | 16.2 µM (inactive) | 16.1 µM (inactive) | 18.5 µM (inactive) | 22.5 µM (inactive) | 
O=Cc1cn(CCCCCCCCCCCCn2cc(C=O)c3ccccc32)c2ccccc12 | > 100 µM (inactive) | > 100 µM (inactive) | > 100 µM (inactive) |  |  | > 100 µM (inactive) | 3.53 µM (inactive) | > 100 µM (inactive) | 57.3 µM (inactive) |  | 7.53 µM (inactive) | > 100 µM (inactive) |  | > 100 µM (inactive) | > 100 µM (inactive) | > 100 µM (inactive) | 11.7 µM (inactive) | 0.611 µM (active) | 2.62 µM (inactive) | 4.04 µM (inactive)
C=C(C)[C@H]1CC(=O)[C@@]2(C)C[C@H]3O[C@]3(C)CC/C=C(\C)CC[C@H]12 | 33.8 µM (inactive) | 49 µM (inactive) | 73.1 µM (inactive) | 58.3 µM (inactive) | 33.4 µM (inactive) | 98.4 µM (inactive) | 34.4 µM (inactive) | 20.8 µM (inactive) | 31.7 µM (inactive) | 42.1 µM (inactive) | 40.5 µM (inactive) | 74.1 µM (inactive) | 38.4 µM (inactive) | 24 µM (inactive) | 23.6 µM (inactive) | > 10 µM (inactive) |  | 32.2 µM (inactive) | 24.8 µM (inactive) | 
COc1ccc(C(Cl)=C(c2ccc(OCCN(C)C)cc2)c2ccc(OCCN(C)C)cc2)cc1 | 1.13 µM (inactive) |  | 3.03 µM (inactive) | 1.44 µM (inactive) | 1.62 µM (inactive) | 1.87 µM (inactive) | 1.73 µM (inactive) | 1.39 µM (inactive) | 1.61 µM (inactive) | 2.49 µM (inactive) | 5.11 µM (inactive) | 3.14 µM (inactive) |  | 1.22 µM (inactive) | 2.65 µM (inactive) | 1.5 µM (inactive) | 1.36 µM (inactive) | 1.73 µM (inactive) |  | 
Cc1ccc(C)c(NC(=O)CC/C(=N\NC(=O)c2c(O)ccc3ccccc23)C(C)C(=O)c2ccc(O)cc2)c1 (stereo not drawn) | 51.9 µM (inactive) |  | 52 µM (inactive) | 20.2 µM (inactive) | 94.4 µM (inactive) | 26.1 µM (inactive) | 31.1 µM (inactive) | 25.2 µM (inactive) | 37.1 µM (inactive) | 29.9 µM (inactive) |  | 49.5 µM (inactive) |  | 27.2 µM (inactive) | 38.6 µM (inactive) | 16.9 µM (inactive) | 27.8 µM (inactive) | 41.3 µM (inactive) |  | 
C1=N\c2ccc(cc2)/N=C\c2ccccc2OCc2cccc(n2)COc2ccccc2/1 | 5.19 µM (inactive) | > 100 µM (inactive) | 75.2 µM (inactive) |  |  | > 100 µM (inactive) | > 100 µM (inactive) | > 100 µM (inactive) | > 100 µM (inactive) | > 100 µM (inactive) | > 100 µM (inactive) | 30.1 µM (inactive) | > 100 µM (inactive) | > 100 µM (inactive) | > 100 µM (inactive) | > 100 µM (inactive) | > 100 µM (inactive) | > 100 µM (inactive) | > 100 µM (inactive) | 
CC(=O)O[C@H]1/C(=C/c2ccc(N(C)C)cc2)C[C@H]2[C@@H]3CC=C4C[C@@H](N5CCCC5)CC[C@]4(C)[C@H]3CC[C@]12C | > 100 µM (inactive) |  | > 100 µM (inactive) | > 100 µM (inactive) | > 100 µM (inactive) | > 100 µM (inactive) | > 100 µM (inactive) | > 100 µM (inactive) | > 100 µM (inactive) |  | > 100 µM (inactive) | > 100 µM (inactive) | 65.6 µM (inactive) | > 100 µM (inactive) | > 100 µM (inactive) | > 100 µM (inactive) | 40 µM (inactive) | > 100 µM (inactive) | > 100 µM (inactive) | > 100 µM (inactive)
COc1cc(C[P+](c2ccccc2)(c2ccccc2)c2ccccc2)cc(OC)c1OC | > 100 µM (inactive) |  | > 100 µM (inactive) | > 100 µM (inactive) | > 100 µM (inactive) | > 100 µM (inactive) | > 100 µM (inactive) | > 100 µM (inactive) | > 100 µM (inactive) | > 100 µM (inactive) | > 100 µM (inactive) | > 100 µM (inactive) |  |  | > 100 µM (inactive) | > 100 µM (inactive) | > 100 µM (inactive) | > 100 µM (inactive) |  | 
O=C(O)/C=C/C(=O)N1C/C(=C\c2ccccc2)C(=O)/C(=C/c2ccccc2)C1 | 5.05 µM (inactive) |  | 16.7 µM (inactive) | 9.84 µM (inactive) | 1.78 µM (inactive) | 2.7 µM (inactive) | 9.71 µM (inactive) | 10.2 µM (inactive) | 12.4 µM (inactive) | 7.43 µM (inactive) | 23.5 µM (inactive) | 23.4 µM (inactive) |  | 2.81 µM (inactive) | 6.81 µM (inactive) | 3.4 µM (inactive) | 3.72 µM (inactive) | 8.95 µM (inactive) | 4.73 µM (inactive) | 
CC(N)Cc1ccc(Cl)cc1 (stereo not drawn) | > 100 µM (inactive) |  | 42.4 µM (inactive) | > 100 µM (inactive) | > 100 µM (inactive) | > 100 µM (inactive) | 39.5 µM (inactive) | > 100 µM (inactive) | > 100 µM (inactive) | > 100 µM (inactive) | > 100 µM (inactive) | > 100 µM (inactive) |  | 68.9 µM (inactive) | > 100 µM (inactive) | > 100 µM (inactive) | > 100 µM (inactive) | 72.1 µM (inactive) |  | 
CSC[S+]([O-])C[C@H](CO)NC(=O)/C=C/c1c(C)[nH]c(=O)[nH]c1=O (stereo partly drawn) | 0.804 µM (active) |  | 0.614 µM (active) | 0.236 µM (active) | 1.79 µM (inactive) | 1.43 µM (inactive) | 0.644 µM (active) | 1.43 µM (inactive) | 0.67 µM (active) | 0.251 µM (active) | 1.87 µM (inactive) | 1.15 µM (inactive) |  | 1.92 µM (inactive) | 0.776 µM (active) | 1.16 µM (inactive) | 2.04 µM (inactive) | 2.44 µM (inactive) | 1.8 µM (inactive) | 
O=C1Cc2c([nH]c3ccc([N+](=O)[O-])cc23)-c2ccccc2N1 [ALSTERPAULLONE] | 0.284 µM (active) | 0.367 µM (active) | 0.53 µM (active) | 0.804 µM (active) | 0.438 µM (active) | 0.446 µM (active) | 0.557 µM (active) | 0.235 µM (active) | 0.275 µM (active) | 0.498 µM (active) | 0.652 µM (active) | 0.279 µM (active) | 2.88 µM (inactive) | 0.312 µM (active) | 0.391 µM (active) | 0.453 µM (active) |  | 0.174 µM (active) | 0.508 µM (active) | 
